Experiment [1] relates to Platelet aggregation in dog PRP. Description: In-Vitro Platelet Aggregation in PRP (ADP induced). As to conditions: Canis lupus familiaris; for IC50: ADP 50 μm, 37° C.; for inhibition at 10 µM: ADP, test concentration 1 × 10^-5. Type of experiment: cell-based. How it is done: In-Vitro Platelet Aggregation in PRP
(§1) Healthy male or female dogs were fasted for 8 hours prior to drawing blood; then 30 ml whole blood was collected using a butterfly needle and 30 cc plastic syringe with 3 ml of 0.129M buffered sodium citrate (3.8%). The syringe was rotated carefully as blood was drawn to mix the citrate. Platelet-rich plasma (PRP) was prepared by centrifugation at 975×g for 3.17 minutes at room temperature, allowing the centrifuge to coast to a stop without braking. The PRP was removed from the blood with a plastic pipette and placed in a plastic capped, 50 ml Corning conical sterile centrifuge tube which was held at room temperature. Platelet poor plasma (PPP) was prepared by centrifuging the remaining blood at 2000×g for 15 minutes at room temperature allowing the centrifuge to coast to a stop without braking. The PRP was adjusted with PPP to a count of 2-3×10^8 platelets per ml. 400 for 5-(p-cyanophenyl)pentanoic acid in Section C of Example 1.
as §1, with “400 μl of the PRP preparation and 50 μl of the compound to be tested or saline were preincubated” for “400”, “1 minute at 37° C.” for “5-(p-cyanophenyl)pentanoic acid”, “a BioData aggregometer (BioData, Horsham, Pa.). 50 μl” for “Section C”, “adenosine 5'diphosphate (ADP) (50 μm final concentration) was added to the cuvettes and the aggregation was monitored for 1 minute. All compounds are tested in duplicate. Results are calculated as follows:” for “Example 1.”
Percent of control=[(maximal OD minus initial OD of compound) divided by
(maximal OD minus initial OD of control saline)]×100. The %
inhibition=100-(percent of control).

Experiment [2] relates to ex vivo collagen induced platelet aggregation. The experiment can be described thus: Inhibition of ex vivo collagen induced aggregation. The conditions noted are these: dog. The format is in vivo, dog (Beagle). How it is done: INHIBITION OF EX VIVO COLLAGEN INDUCED AGGREGATION BY COMPOUNDS OF THE INVENTION
PURPOSE--The purpose of this assay is to determine the effects of antiplatelet compounds on ex vivo collagen induced platelet aggregation when administered either intravenously or orally to dogs.
Pretreatment (control) blood samples are drawn from either conscious or anesthetized dogs (Beagles) and centrifuged to prepare platelet rich plasma (PRP). Aggregatory response to collagen is measured in an aggregometer and used as Control. Compounds are administered, either intragasterically (either by capsule or stomach tube or intravenously. Blood samples are drawn at predetermined intervals after compound administration, PRP prepared and aggregation to collagen determined. Compound inhibition of aggregation is determined by comparing the aggregation response after compound administration to the pretreatment response. The study is continued for a maximum of 24 hours or until the platelet aggregation returns to control levels. (If aggregation is still inhibited after 7 hours, a blood sample is drawn the following morning and tested.) Duration of activity is determined by the length of time platelet aggregation is inhibited after compound administration.

Broadly, the IC50 is the concentration that inhibits the measured activity by half. Higher therefore signals a need for much substance. In general, inhibition refers to the relative decrease from the control value, in per cent. A low value points to a response near the control. In experiment [1], `COc1ccc(CCNC(=O)[C@H](CC(=O)O)NC(=O)CCCCc2ccc(C(=N)N)cc2)cc1` [3S [[5-[4-(aminoiminomethyl)phenyl]-1-oxopentyl]amino]-4-[[2-4-(methoxyphenyl)ethyl]amino]-4-oxobutanoic acid] displayed an IC50 of 420 nM and an inhibition at 10 µM of 100%.
For `N=C(N)c1ccc(CCCCC(=O)N[C@@H](CC(=O)O)C(=O)N(CCC(=O)O)CCc2ccccc2)cc1` [3S-[[5-[4-(Aminoiminomethyl)phenyl]-1-oxopentyl]amino]-4-[(2-carboxyethyl)(2-phenylethyl)amino]-4-oxobutanoic acid] the same measures were 10000 nM and 53%.
With `COc1ccc(CCN(CCC(=O)O)C(=O)[C@H](CC(=O)O)NC(=O)CCCCc2ccc(C(=N)N)cc2)cc1` [3S-[[5-[4-(aminoiminomethyl)phenyl]-1-oxopentyl)amino]-4-[(2-carboxyethyl)(2-(4-methoxyphenyl)ethyl]amino]-4-oxobutanoic acid], the inhibition at 10 µM in experiment [1] is 66%.
As to `CC(C)CN(CCC(=O)O)C(=O)[C@H](CC(=O)O)NC(=O)CCCCc1ccc(C(=N)N)cc1` [3S-[[5-[4-(aminoiminomethyl)phenyl]-1-oxopentyl]amino]-4-[(2-carboxyethyl)(2-methylpropyl)amino]-4-oxobutanoic acid], the inhibition at 10 µM in experiment [1] was found to be 14%.
With `N=C(N)c1ccc(CCCCC(=O)N[C@@H](CC(=O)O)C(=O)N(CCC(=O)O)Cc2ccccc2)cc1` [3S-[[5-[4-(aminoiminomethyl)phenyl]-1-oxopentyl]amino]-4-[(2-carboxyethyl)(phenylmethyl)amino]-4-oxobutanoic acid], in experiment [1], the midpoint of inhibition, the IC50, lay at 4300 nM and 10 µM produced 100% inhibition.
On to `CC(C)CNC(=O)[C@H](CC(=O)O)NC(=O)CCCCc1ccc(C(=N)N)cc1` [3S-[[5-[4-(aminoiminomethyl)phenyl]-1-oxopentyl]amino]-4-[(2-methylpropyl)amino]-4-oxobutanoic acid], for which, in experiment [1], the midpoint of inhibition, the IC50, lay at 700 nM and testing at 10 µM gave an inhibition of 100%. The “Ex-vivo collagen induced aggregation, Max % Inhibition” value in experiment [2] (0.1 mg/kg, IV) came to 100%.
For `N=C(N)c1ccc(CCCCC(=O)N[C@@H](CC(=O)O)C(=O)NCCc2c[nH]c3ccccc23)cc1` [3S-[[5-[4-(aminoiminomethyl)phenyl]-1-oxopentyl]amino]-4-[[2-(1H-indol-3-yl)ethyl]amino]-4-oxobutanoic acid], in experiment [1], inhibition was half-maximal at 280 nM (IC50) and the inhibition at 10 µM worked out at 100%.
The matching figures for `COC(=O)C[C@H](NC(=O)CCCCc1ccc(C(=N)N)cc1)C(=O)N[C@@H](Cc1ccccc1)C(=O)OC` [N-[5-[4-(aminoiminomethyl)phenyl]-1-oxopentyl]-N-L-α-aspartyl-L-phenylalanine, dimethyl ester]: 400 nM and 100%.
For `CC(C)[C@H](NC(=O)[C@H](CC(=O)O)NC(=O)CCCCc1ccc(C(=N)N)cc1)C(=O)O` [N-[5-[4-(aminoiminomethyl)phenyl]-1-oxopentyl]-N-L-α-aspartyl-L-valine] the same measures were 130 nM and 100%.
Take `CN(CC(=O)N[C@@H](CC(=O)O)C(=O)N[C@@H](Cc1ccccc1)C(=O)O)C(=O)CCc1ccc(C(=N)N)cc1` [N-[N-[2-[[3-[4-(aminoiminomethyl)phenyl]-1-oxopropyl]methylamino] -1-oxoethyl]-L-α-aspartyl]-L-phenylalanine]: in experiment [1], the IC50 is 700 nM and the inhibition at 10 µM was determined as 100%.
For `N=C(N)c1ccc2cc(OCC(=O)N[C@@H](CC(=O)O)C(=O)N[C@@H](Cc3ccccc3)C(=O)O)ccc2c1` [N-[N-[2-[[6-(aminoiminomethyl)-2-naphthalenyl]oxy]-1-oxoethyl]-L-α-aspartyl]-L-phenylalanine] the same measures were 1100 nM and 100%.
The matching figures for `N=C(N)c1ccc2cc(CCC(=O)N[C@@H](CC(=O)O)C(=O)N[C@@H](Cc3ccccc3)C(=O)O)ccc2c1` [N-[N-[3-[6-(aminoiminomethyl)-2-naphthalenyl]-1-oxopropyl]-L-α-aspartyl]-L-phenylalanine]: 5500 nM and 100%.
Molecule `N=C(N)c1ccc(CCCC(=O)N[C@@H](CC(=O)O)C(=O)N[C@@H](Cc2ccccc2)C(=O)O)cc1` [N-[N-[4-[4-(aminoiminomethyl)phenyl]-1-oxobutyl]-L-α-aspartyl]-L-phenylalanine] yielded an inhibition at 10 µM in experiment [1] of 4%.
On the same count and under the same terms, under `N=C(N)c1cccc(CCCCC(=O)N[C@@H](CC(=O)O)C(=O)N[C@@H](Cc2ccccc2)C(=O)O)c1` [N-[N-[5-[3-(aminoiminomethyl)phenyl-1-oxopentyl]-L-α-aspartyl]-L-phenylalanine] stands 25%.
In experiment [1], `N=C(N)c1ccc(CC(=O)CCC(=O)N[C@@H](CC(=O)O)C(=O)N[C@@H](Cc2ccccc2)C(=O)O)cc1` [N-[N-[5-[4-(aminoiminomethyl)phenyl]-1,4-dioxopentyl]-L-α-aspartyl]-L-phenylalanine] showed an IC50 of 180 nM and an inhibition at 10 µM of 100%.
As to `N=C(N)c1ccc(/C=C\CCC(=O)N[C@@H](CC(=O)O)C(=O)N[C@@H](Cc2ccccc2)C(=O)O)cc1` [N-[N-[5-[4-(aminoiminomethyl)phenyl]-1-oxo-4Z-pentenyl]-L-α-aspartyl]-L-phenylalanine], in experiment [1], the IC50 was determined as 600 nM and the inhibition at 10 µM turned out to be 100%.
On to `CCOC(=O)C[C@H](NC(=O)CCCCc1ccc(C(=N)N)cc1)C(=O)N[C@@H](Cc1ccccc1)C(=O)OCC` [N-[N-[5-[4-(aminoiminomethyl)phenyl]-1-oxopentyl]-L-α-aspartyl]-L-phenylalanine, diethyl ester], for which, in experiment [2] (.025 mg/kg, IG), the “Ex-vivo collagen induced aggregation, Max % Inhibition” value was 39%.
In experiment [1], `CN(C(=O)[C@H](CC(=O)O)NC(=O)CCCCc1ccc(C(=N)N)cc1)[C@@H](Cc1ccccc1)C(=O)O` [N-[N-[5-[4-(aminoiminomethyl)phenyl]-1-oxopentyl]-L-α-aspartyl]-N-methyl-L-phenylalanine] returned an IC50 of 1500 nM and an inhibition at 10 µM of 100%.
Turning to `N=C(N)c1ccc(CC(O)CCC(=O)N[C@@H](CC(=O)O)C(=O)N[C@@H](Cc2ccccc2)C(=O)O)cc1` (stereo partly drawn) [N-[N-[5-[4-(aminoiminomethyl)phenyl]-4-hydroxy-1-oxopentyl]-L-α-aspartyl]-L-phenylalanine], the inhibition at 10 µM in experiment [1] was found to be 15%.

Source of the values: patent US5481021A, “Phenyl amidines derivatives useful as platelet aggregation inhibitors” (G. D. Searle & Co., priority 1994, dated 1996).
